Laboratory results taken from PMC13233288, “Spider venom peptides Ht1a and Gg1a are toxic to honeybee parasite Varroa destructor by topical application” (npj Drug Discovery, 2026).
“Also recorded” adds a separate entry of the source. No end group written: not given here.

Legend:
V. destructor mites [1] = test: Topical varroa assay of venom fractions / purified native peptides; assay type: in vivo, Varroa destructor; settings: native peptide / HPLC fraction; Ht1a three cohorts of 5 mites, Gg1a two cohorts of 5 mites
Procedure: An outline of the project discovery pipeline is presented in Supplementary Fig. 1. To identify varroacidal venom peptides, we screened venoms for activity against V. destructor by topical application. Topical tests were performed in several stages. First, whole venom was tested to determine mortality for V. destructor. Hit venoms were then subjected to several fractionation steps to isolate the active compounds. For the initial venom screen, a panel of 50 arthropod venoms (Table 1) were topically applied to V. destructor mites. Venoms were dissolved in 90% acetonitrile (v/v), and a 10 μg venom aliquot was applied per mite (n = 5 mites per venom). The dorsal plate of V. destructor mites (average mass 0.38 mg) was fixed to adhesive tape (ScotchTM 666 3 M; 19 × 32.9 mm, double sided) on microscope slides (ground edges 90° frosted end, 76 × 26 mm). A Nanoject II (Automatic Injector with Glass Capillaries, Drummond Cat.No. 3-000-205 A) was used for topical application of venom and control (90% acetonitrile) solutions. […] Mite mortality was determined at various time intervals up to 48 h after the treatment using an Olympus stereomicroscope (SZX10/SZX2 Series). […] The percentage of mite mortality for each venom was calculated at 2, 6 and 24 h, and adjusted by correcting for the mortality of the corresponding control group receiving only 90% acetonitrile. […]

V. destructor mites [2] = test: Topical application of synthetic peptides and oxalic acid to V. destructor mites; assay type: in vivo, Varroa destructor; settings: 0.48 μg/mite in 0.5% Silwet (v/v); for earliest onset of mortality: 2-hourly recording between 0 and 48 h; for survival/mortality of V. destructor: n = 5 mites per group, up to 48 h, vs 0.5% Silwet control, two-way ANOVA, Dunnett
Procedure: An outline of the project discovery pipeline is presented in Supplementary Fig. 1. To identify varroacidal venom peptides, we screened venoms for activity against V. destructor by topical application. Topical tests were performed in several stages. First, whole venom was tested to determine mortality for V. destructor. Hit venoms were then subjected to several fractionation steps to isolate the active compounds. For the initial venom screen, a panel of 50 arthropod venoms (Table 1) were topically applied to V. destructor mites. Venoms were dissolved in 90% acetonitrile (v/v), and a 10 μg venom aliquot was applied per mite (n = 5 mites per venom). The dorsal plate of V. destructor mites (average mass 0.38 mg) was fixed to adhesive tape (ScotchTM 666 3 M; 19 × 32.9 mm, double sided) on microscope slides (ground edges 90° frosted end, 76 × 26 mm). A Nanoject II (Automatic Injector with Glass Capillaries, Drummond Cat.No. 3-000-205 A) was used for topical application of venom and control (90% acetonitrile) solutions. To accelerate solvent evaporation, the total volume of 483 nL was applied in seven aliquots of 69 nL each to the ventral plate of the mites between the posterior pair of legs. Each drop was allowed to dry before applying the next one, with the entire application procedure taking up to 1 h. Mite mortality was determined at various time intervals up to 48 h after the treatment using an Olympus stereomicroscope (SZX10/SZX2 Series). Initially, each mite was examined for movements of the legs, and immobile mites were stimulated with the tip of a wooden toothpick. Detection of static electricity by the mites, a few millimetres before the actual contact with the toothpick, was usually sufficient to trigger movement in mites that were still alive. […] At the later stage of the project, the slides with mites were placed into a self-constructed automated video monitoring system (using a USB camera) that employs an algorithm in OpenCV to subtract images from subsequent frames enabling the detection of changes in pixel intensity due to movements, for example of the extremities. Leg movements were stimulated with an air current applied over the mites at the time of image acquisition to determine mite mortality. The percentage of mite mortality for each venom was calculated at 2, 6 and 24 h, and adjusted by correcting for the mortality of the corresponding control group receiving only 90% acetonitrile.
The same procedure initially used for identifying varroacidal venoms was used for testing the topical activity of sHt1a and sGg1a. The peptides were dissolved in 0.5% Silwet L-77 (v/v), a silicone-based surfactant that is commonly used as a spreading agent for foliar sprays. 0.48 μg of peptide was topically applied to each mite, with n = 5 mites per treatment group. The activity of the sHt1a was confirmed using three cohorts of n = 5 mites, whereas the activity of sGg1a was confirmed using four cohorts of n = 5 mites. As a negative control, an equal volume of 0.5% Silwet (v/v) was topically applied (four cohorts of n = 5 mites), and 3% oxalic acid, a known varroacide used in commercial products[10] was used as positive control (eight cohorts of n = 5 mites). Mite mortality was recorded at 2-hourly intervals between 0 and 48 h after the treatment. For statistical analysis, mite survival data were plotted in Prism 10.0 (GraphPad Software, CA, USA), then a two-way ANOVA followed by Dunnett’s multiple comparisons test was performed, comparing the peptide and oxalic acid treatment against the respective 0.5% Silwet (v/v) control group data.

Substance | topical varroacidal activity (V. destructor mites [1]) | earliest onset of mortality (V. destructor mites [2]) [h] | survival/mortality of V. destructor (V. destructor mites [2]) | survival/mortality of V. destructor (V. destructor mites [2]; listed as sGg1a) | survival/mortality of V. destructor (V. destructor mites [2]; listed as sHt1a)
U1-macrothelitoxin-Gg1a | topical varroacidal activity; also recorded: confirmed | 16 | induced topical mortality; also recorded: reduced varroa mite but not honeybee survival; also recorded: lethal to varroa mites | significantly reduced the survival; also recorded: significantly reduced V. destructor survival | 
KYCAPRKAVCNTPADCCDKSSRCAYPNYGLGYYLDSEFFGKRKICSWRL (also: bicyclic or more (positions not given here)) [Ht1a, μ-gradutoxin-Ht1a] | contained the varroacidal activity; also recorded: confirmed | 34 | induced topical mortality; also recorded: reduced varroa mite but not honeybee survival; also recorded: lethal to varroa mites |  | significantly reduced the survival; also recorded: significantly reduced V. destructor survival
